{"source": "patent EP2929883A1", "about": "“Pyrazole derivatives as dihydroorotate dehydrogenase (DHODH) inhibitors” (INSTITUT PASTEUR, priority 2014, dated 2015)"}
{"test_system": "measles virus", "experiment": "microbe, parasite or virus in culture", "settings": "Measles morbillivirus, 24 h", "units": {"MIC50": "µM"}}
{"molecule": "COc1nn(-c2ncc(C3CC3)cn2)c(C)c1Cc1ccccc1", "note": "[example 138, 2-(4-benzyl-3-methoxy-5-methyl-1H-pyrazol-1-yl)-5-cyclopropylpyrimidine]", "MIC50": "0.05 to 0.5"}
{"molecule": "CCOc1nn(-c2ccc(C)cn2)c(C)c1Cc1ccccc1", "note": "[example 31, 2-(4-benzyl-3-ethoxy-5-methyl-1H-pyrazol-1-yl)-5-methylpyridine]", "MIC50": "0.5 to 5"}
{"molecule": "CCOc1nn(-c2ccccn2)c(C)c1-c1cccc(C(F)(F)F)c1", "note": "[example 158, 2-(3-ethoxy-5-methyl-4-(3-(trifluoromethyl)phenyl)-1H-pyrazol-1-yl)pyridine]", "MIC50": "> 5"}
{"molecule": "CCOc1nn(-c2ccc(C3CC3)cn2)c(C)c1Oc1cccc(C(F)(F)F)c1", "note": "[example 93, 5-cyclopropyl-2-(3-ethoxy-5-methyl-4-(3-(trifluoromethyl)phenoxy)-1H-pyrazol-1-yl)pyridine]", "MIC50": "0.05 to 0.5"}
{"molecule": "CCOc1nn(-c2ccc(C3CC3)cn2)c(C)c1Oc1ccc(C(F)(F)F)cc1", "note": "[example 94, 5-cyclopropyl-2-(3-ethoxy-5-methyl-4-(4-(trifluoromethyl)phenoxy)-1H-pyrazol-1-yl)pyridine]", "MIC50": "0.5 to 5"}
{"molecule": "Cc1c(Oc2ccc(F)cc2)c(OC(C)C)nn1-c1ccc(C2CC2)cn1", "note": "[example 98, 5-cyclopropyl-2-(4-(4-fluorophenoxy)-3-isopropoxy-5-methyl-1H-pyrazol-1-yl)pyridine]", "MIC50": "0.5 to 5"}
{"molecule": "CC(C)Oc1nn(-c2ncc(C3CC3)cn2)c(Cl)c1Oc1ccccc1F", "note": "[example 192, 2-(5-chloro-4-(2-fluorophenoxy)-3-isopropoxy-1H-pyrazol-1-yl)-5-cyclopropylpyrimidine]", "MIC50": "0.0005 to 0.05"}
{"molecule": "Cc1c(Oc2cccc(F)c2F)c(OC(C)C)nn1-c1ccc(C2CC2)cn1", "note": "[example 16, 5-cyclopropyl-2-(4-(2,3-difluorophenoxy)-3-isopropoxy-5-methyl-1H-pyrazol-1-yl)pyridine]", "MIC50": "0.0005 to 0.05"}
{"molecule": "COc1cccc(Cc2cc(OC)nn2-c2ccccn2)c1", "note": "[example 148, 2-(3-methoxy-5-(3-methoxybenzyl)-1H-pyrazol-1-yl)pyridine]", "MIC50": "> 5"}
{"molecule": "CCOc1cc(C(=O)c2ccc(Cl)cc2)n(-c2ccccn2)n1", "note": "[example 149, (4-chlorophenyl)(3-ethoxy-1-(pyridin-2-yl)-1H-pyrazol-5-yl)methanone]", "MIC50": "> 5"}
{"molecule": "CCCCc1c(OCC)nn(-c2ncc(CC)cn2)c1C", "note": "[example 114, 2-(4-butyl-3-ethoxy-5-methyl-1H-pyrazol-1-yl)-5-ethylpyrimidine]", "MIC50": "0.5 to 5"}
{"molecule": "CCOc1nn(-c2ncc(CC)cn2)c(C)c1-c1ccc(OC)cc1", "note": "[example 161, 2-(3-ethoxy-4-(4-methoxyphenyl)-5-methyl-1H-pyrazol-1-yl)-5-ethylpyrimidine]", "MIC50": "0.5 to 5"}
{"molecule": "CCOc1nn(-c2ccc(C3CC3)cn2)c(C)c1Oc1ccccc1C(F)(F)F", "note": "[example 56, 5-cyclopropyl-2-(3-ethoxy-5-methyl-4-(2-(trifluoromethyl)phenoxy)-1H-pyrazol-1-yl)pyridine]", "MIC50": "0.05 to 0.5"}
{"molecule": "Cc1c(Oc2ccccc2F)c(OC(C)C)nn1-c1ncc(C2CC2)cn1", "note": "[example 51, 5-cyclopropyl-2-(4-(2-fluorophenoxy)-3-isopropoxy-5-methyl-1H-pyrazol-1-yl)pyrimidine]", "MIC50": "0.0005 to 0.05"}
{"molecule": "CCc1cnc(-n2nc(OC(C)C)c(Cc3cccc(F)c3)c2C)nc1", "note": "[example 11, 5-ethyl-2-(4-(3-fluorobenzyl)-3-isopropoxy-5-methyl-1H-pyrazol-1-yl)pyrimidine]", "MIC50": "0.0005 to 0.05"}
{"molecule": "CCOc1c(Cc2ccccc2)c(C)nn1-c1ncc(Br)cn1", "note": "[example 43, 2-(4-benzyl-5-ethoxy-3-methyl-1H-pyrazol-1-yl)-5-bromopyrimidine]", "MIC50": "> 5"}
{"molecule": "c1ccc(Oc2cn(-c3ncc(C4CC4)cn3)nc2C2CC2)cc1", "note": "[example 119, 5-cyclopropyl-2-(3-cyclopropyl-4-phenoxy-1H-pyrazol-1-yl)pyrimidine]", "MIC50": "0.0005 to 0.05"}
{"molecule": "CCCc1cnc(-n2nc(OCC)c(Cc3ccccc3)c2C)nc1", "note": "[example 27, 2-(4-benzyl-3-ethoxy-5-methyl-1H-pyrazol-1-yl)-5-propylpyrimidine]", "MIC50": "0.0005 to 0.05"}
{"molecule": "COc1cc(-c2ccc(Cl)cc2Cl)n(-c2ccccn2)n1", "note": "[example 144, 2-(5-(2,4-dichlorophenyl)-3-methoxy-1H-pyrazol-1-yl)pyridine]", "MIC50": "> 5"}
{"molecule": "Cc1c(Oc2c(F)cccc2F)c(OC(C)C)nn1-c1ccc(C(C)(C)O)cn1", "note": "[example 84, 2-(6-(4-(2,6-difluorophenoxy)-3-isopropoxy-5-methyl-1H-pyrazol-1-yl)pyridin-3-yl)propan-2-ol]", "MIC50": "0.05 to 0.5"}
{"molecule": "CCOc1nn(-c2ccc(C3CC3)cn2)c(C)c1Oc1ccccc1Br", "note": "[example 55, 2-(4-(2-bromophenoxy)-3-ethoxy-5-methyl-1H-pyrazol-1-yl)-5-cyclopropylpyridine]", "MIC50": "0.0005 to 0.05"}
{"molecule": "c1ccc(Oc2cn(-c3ccc(C4CC4)cn3)nc2C2CC2)cc1", "note": "[example 120, 5-cyclopropyl-2-(3-cyclopropyl-4-phenoxy-1H-pyrazol-1-yl)pyridine]", "MIC50": "0.05 to 0.5"}
{"molecule": "CCCc1cnc(-n2nc(OC(C)C)c(Oc3c(F)cccc3F)c2C)nc1", "note": "[example 6, 2-(4-(2,6-difluorophenoxy)-3-isopropoxy-5-methyl-1H-pyrazol-1-yl)-5-propylpyrimidine]", "MIC50": "0.0005 to 0.05"}
{"molecule": "Cc1c(Oc2c(F)cccc2F)c(OC(C)C)nn1-c1ncc(C2CC2)cc1OCc1ccccc1", "note": "[example 186, 3-(benzyloxy)-5-cyclopropyl-2-(4-(2,6-difluorophenoxy)-3-isopropoxy-5-methyl-1H-pyrazol-1-yl)pyridine]", "MIC50": "0.05 to 0.5"}
{"molecule": "CC(C)Oc1nn(-c2ccc(C3CC3)cn2)cc1Oc1ccccc1F", "note": "[example 65, 5-cyclopropyl-2-(4-(2-fluorophenoxy)-3-isopropoxy-1H-pyrazol-1-yl)pyridine]", "MIC50": "0.0005 to 0.05"}
{"molecule": "CCOc1nn(-c2ncc(C3CC3)cn2)c(C)c1Cc1ccccc1", "note": "[example 29, 2-(4-benzyl-3-ethoxy-5-methyl-1H-pyrazol-1-yl)-5-cyclopropylpyrimidine]", "MIC50": "0.0005 to 0.05"}
{"molecule": "Cc1c(Cc2ccccc2)c(OC(C)C)nn1-c1ncccc1C#N", "note": "[example 89, 2-(4-benzyl-3-isopropoxy-5-methyl-1H-pyrazol-1-yl)nicotinonitrile]", "MIC50": "0.5 to 5"}
{"molecule": "Cc1c(Oc2c(F)cccc2F)c(OC(C)C)nn1-c1ccc(C(C)(F)F)cn1", "note": "[example 91, 5-(1,1-difluoroethyl)-2-(4-(2,6-difluorophenoxy)-3-isopropoxy-5-methyl-1H-pyrazol-1-yl)pyridine]", "MIC50": "0.05 to 0.5"}
{"molecule": "Cc1c(Oc2c(F)cccc2F)c(OC(C)C)nn1-c1ncc(Br)cc1F", "note": "[example 86, 5-bromo-2-(4-(2,6-difluorophenoxy)-3-isopropoxy-5-methyl-1H-pyrazol-1-yl)-3-fluoropyridine]", "MIC50": "0.05 to 0.5"}
{"molecule": "CCOc1nn(-c2ncc(CC)cn2)c(C)c1Oc1cccc(C(F)(F)F)c1", "note": "[example 57, 2-(3-ethoxy-5-methyl-4-(3-(trifluoromethyl)phenoxy)-1H-pyrazol-1-yl)-5-ethylpyrimidine]", "MIC50": "0.05 to 0.5"}
{"molecule": "CC(C)Oc1nn(-c2ncc(C3CC3)cn2)cc1S(=O)(=O)c1ccccc1", "note": "[example 183, 5-cyclopropyl-2-(3-isopropoxy-4-(phenylsulfonyl)-1H-pyrazol-1-yl)pyrimidine]", "MIC50": "0.0005 to 0.05"}
{"molecule": "Cc1c(Oc2ccccc2F)c(OC(C)C)nn1-c1ncc(C2CC2)cc1F", "note": "[example 53, 5-cyclopropyl-3-fluoro-2-(4-(2-fluorophenoxy)-3-isopropoxy-5-methyl-1H-pyrazol-1-yl)pyridine]", "MIC50": "0.05 to 0.5"}
{"molecule": "CCC(CC)Oc1nn(-c2ncc(C3CC3)cn2)c(C)c1Cc1ccccc1", "note": "[example 141, 2-(4-benzyl-5-methyl-3-(pentan-3-yloxy)-1H-pyrazol-1-yl)-5-cyclopropylpyrimidine]", "MIC50": "0.0005 to 0.05"}
{"molecule": "Cc1c(Oc2c(F)cccc2F)c(OC(C)C)nn1-c1cnc(C2CC2)nc1", "note": "[example 133, 2-cyclopropyl-5-(4-(2,6-difluorophenoxy)-3-isopropoxy-5-methyl-1H-pyrazol-1-yl)pyrimidine]", "MIC50": "0.05 to 0.5"}
{"molecule": "CCOc1cc(Cc2ccccc2)n(-c2ncc(CC)cn2)n1", "note": "[example 2, 2-(5-benzyl-3-ethoxy-1H-pyrazol-1-yl)-5-ethylpyrimidine]", "MIC50": "> 5"}
{"molecule": "Cc1c(Oc2c(F)cccc2F)c(OC(C)C)nn1-c1ncc(F)cn1", "note": "[example 14, 2-(4-(2,6-difluorophenoxy)-3-isopropoxy-5-methyl-1H-pyrazol-1-yl)-5-fluoropyrimidine]", "MIC50": "0.05 to 0.5"}
{"molecule": "COc1ccc(-n2nc(OC(C)C)c(Oc3c(F)cccc3F)c2C)cn1", "note": "[example 130, 5-(4-(2,6-difluorophenoxy)-3-isopropoxy-5-methyl-1H-pyrazol-1-yl)-2-methoxypyridine]", "MIC50": "0.5 to 5"}
{"molecule": "Cc1c(Oc2c(F)cccc2F)c(OC(C)C)nn1-c1ncc(C2CC2)cc1N(C)C", "note": "[example 190, 5-cyclopropyl-2-(4-(2,6-difluorophenoxy)-3-isopropoxy-5-methyl-1H-pyrazol-1-yl)-N,N-dimethylpyridin-3-amine]", "MIC50": "0.0005 to 0.05"}
{"molecule": "CCc1cnc(-n2nc(OC(C)C)c(Oc3ccc(F)cc3F)c2C)nc1", "note": "[example 61, 2-(4-(2,4-difluorophenoxy)-3-isopropoxy-5-methyl-1H-pyrazol-1-yl)-5-ethylpyrimidine]", "MIC50": "0.0005 to 0.05"}
{"molecule": "CCc1cnc(-n2[nH]c(=O)c(Cc3ccccc3)c2C)nc1", "note": "[example 135, 4-benzyl-1-(5-ethylpyrimidin-2-yl)-5-methyl-1H-pyrazol-3(2H)-one]", "MIC50": "0.5 to 5"}
{"molecule": "CC(=O)c1ccc(-n2nc(OC(C)C)c(Oc3c(F)cccc3F)c2C)nc1", "note": "[example 87, 1-(6-(4-(2,6-difluorophenoxy)-3-isopropoxy-5-methyl-1H-pyrazol-1-yl)pyridin-3-yl)ethanone]", "MIC50": "0.05 to 0.5"}
{"molecule": "CCc1cnc(-n2nc(OC(C)C)c(Cc3ccccc3F)c2C)nc1", "note": "[example 23, 5-ethyl-2-(4-(2-fluorobenzyl)-3-isopropoxy-5-methyl-1H-pyrazol-1-yl)pyrimidine]", "MIC50": "0.0005 to 0.05"}
{"molecule": "COc1cnc(-n2nc(OC(C)C)c(Oc3c(F)cccc3F)c2C)cn1", "note": "[example 173, 2-(4-(2,6-difluorophenoxy)-3-isopropoxy-5-methyl-1H-pyrazol-1-yl)-5-methoxypyrazine]", "MIC50": "0.5 to 5"}
{"molecule": "CCOc1nn(-c2ccc(C(C)C)cn2)c(C)c1Cc1ccccc1", "note": "[example 170, 2-(4-benzyl-3-ethoxy-5-methyl-1H-pyrazol-1-yl)-5-isopropylpyridine]", "MIC50": "0.5 to 5"}
